Key:
[1] = tested on: Carboxylesterase from porcine liver; assay: Hydrolysis of prodrugs by porcine liver carboxylesterase (CES), LC/MS; details: for SA relative to 5-FCPal: CES hydrolysis
Procedure: High purity Capecitabine (as solid crystals) was purchased from Xingcheng Chemphar Co., Ltd, P.R.China. […] Millipore water was used to prepare the prodrugs solutions with appropriate concentrations, while phosphate buffered saline (pH 7.4, PBS) was used in the preparation of different concentrations of enzyme.
Stock solution of Capecitabine was prepared by dissolving pure white Capecitabine into warm water. 1 mg/mL of Capecitabine solution was then further obtained by diluting the stock solution with milli-Q water. […] Prior to the experiments, prodrug particles were incubated at 37° C. for at least two weeks to achieve the equilibrium state of certain phases.
Stock solution of 10 mg/mL carboxylesterase solution was prepared by weighting 10 mg of powder enzyme in 1 mL of PBS buffer and shaking gently by hand. The concentration of the enzyme solution was adjusted to 1 mg/mL and 0.01 mg/mL by dilution of the stock solution. These solutions were used for the enzymatic hydrolysis of the prodrugs and Capecitabine respectively. […]
To measure the rate of the enzymatic reaction precisely, the starting substrate and the enzyme solution were mixed for a defined time by rapidly mixing together the two stock solutions and shaking. The time at which enzyme solution was added was taken as time zero for the hydrolysis reaction. The mixture was maintained at 37° C. throughout the experiment. The concentration of the hydrolysis product was then measured at various times using LC/MS (Finnigan LCQ Series, Thermo Scientific, USA). The time at which the sample was injected into the LC column was taken to be the reaction time for such sample. The hydrolysis progress curve showing the decrease in the concentration of original substrate was subsequently plotted.
The concentrations of prodrugs were determined using Thermo Finnigan LC/MS equipped with an atmospheric pressure chemical ionization (APCI) probe in positive ion mode. 10 μL of sample withdrawn from the reaction solution was injected directly into a Platinum EPS C18 100 Å 5u LC column with the length of 150 mm and internal diameter of 4.6 mm (Alltech, Australia). A mixture of 30% LCMS grade water and 70% Methanol was employed as mobile phase with the flow rate of 1 ml/min. The sample after the column separation was eluted to APCI source (MS full positive scan) to determine the molecular weight of the substrates. The vaporizer temperature of the APCI probe was set at 450° C. and the capillary temperature was operated at 200° C. The sample temperature was well maintained at 37° C. during the entire measurement by incubating the sample in the temperature controlled auto-sampler. Data were acquired and processed with Xcalibur Quan chromatography software.
The decreased concentration of substrate and the increased hydrolysis product 5′-dFCyd were detected based on the different retention time on chromatogram and m/z value in the MS positive scan. […] The decreased/increased ratio of reactant/5′dFCyd was determined by comparing the integration areas of the corresponding peaks.
The enzyme hydrolysis reaction was plotted as the logarithm of the ratio of original prodrug concentration to the decreased concentration of prodrug at a certain incubation time as a function of reaction time (Ln [S]0/[S] vs T).
In order to compare the enzymatic activity for each individual substrate to CES, we calculate a global reaction rate expressed as a specific activity (SA) (μmol/min/mg enzyme): SA=Δ[S]/(Δt·[CCES])
Here, as is common when discussing the SA, [CCES] is the enzyme concentration in mg/ml, Δ[S] is the substrate concentration change in μmol/ml during Δt time.

[2] = Lyotropic phase behaviour: water penetration scans, SAXS and XRD; format: physicochemical; details: for lyotropic phase behaviour in water penetration scans: concentration gradient from neat amphiphile to pure water, heated from room temperature; for d-spacing: Lc; for Lyotropic phase behaviour: particle form in water at physiological temperature
Text: Lyotropic mesophase behaviour was studied using water penetration experiments. Neat amphiphile was placed on a glass slide, melted and cooled to facilitate sample homogenization and then covered with a glass cover slip. A few drops of Milli-Q water were then introduced to the edge of the cover slip which was drawn in by capillary action resulting in a concentration gradient from pure amphiphile in the centre to pure water around the edges of the cover slip. The generated mesophases were identified by their characteristic birefringent textures. Samples were then heated at 2° C./min from room temperature to ˜99° C. using an FP90 Linkam hotstage (Linkam Scientific Instruments, England). Thermotropic phase behaviour was also examined in the similar method but in the absence of water. The phases were viewed using an Olympus GX51 inverted polarising microscope (Olympus Australia Pty. Ltd, Australia) equipped with an Olympus C-5060 digital camera for image capture. All images were taken with 100× magnification unless elsewhere stated. […] The bulk phase of the binary amphiphile/water system was prepared by weighing the appropriate amount of sample and water in a sample vial. For those samples requiring pre-treatment, the samples were quickly melted in a pre-heated temperature controlled silicon-oil heating bath prior to addition of water. […] The prepared samples were analysed using an Anton-Paar SAXSess (Graz, Austria) with PANalytical PW3830 stand-alone X-ray generator operating at 40 kv, 50 mA with a sealed-tube Cu anode (λCu—Kα=0.154 nm). The samples were loaded into a paste cell sample holder at room temperature. […] Temperature control was via a TCU Temperature Control Unit (Anton Paar). […] The scattering results were recorded and analysed by the accompanied Anton Paar software.

[3] = Particle size distribution of dispersions by dynamic light scattering; format: physicochemical; details: for mean (average) particle size / particle size distribution: DLS at 25° C., 5-FCPhy and 5-FCOle after membrane extrusion, 5-FCPal solid lipid particles; for Average Particle size: dispersions used in the hydrolysis study, physiological temperature
Procedure: BASF) equivalent to 10% (w/w) of neat amphiphile and absolute ethanol were weighed in a sample vial. […] These crude dispersions were then passed through a series of PC membranes from the size range from 1 um to 100 nm to obtain a more uniform size distribution for the particles. The equipment used for size control is a mini-extruder (Avanti Polar Lipids, USA). […] The final concentration of colloidosomes were determined by ultra performance liquid chromatography (UPLC) and then diluted to 1 mg/mL for use in the enzyme hydrolysis study The particle size distribution and morphology of the above suspensions were determined using the method as described herein by using zetasizer and cryo-TEM characterisation methods. Solid lipid particles of prodrug 5-FCPal were prepared using mechanical methods. […] The melted prodrug and poloxamer mixture was then transferred to 40 mL of pre-warmed water upon vigorous vortexing. The mixture was then sheared with a rough homogenizer (Ultra Turrax®, T18 Basic, IKA® Werke GmbH & Co. KG, Germany) at 14,000 rpm for 10 min. The resultant dispersion was further transferred to the ultrasonic benchtop cleaner for a few hours of ultra sonication. […] Determination of the particle size distribution of the colloidosome and solid lipid particle dispersions were carried out using a Zetasizer (nano zs, Malvern, England) equipped with a He—Ne Laser (4 mw, 633 nm) and an avalanche photodiode detector. […] […] The size distribution was recorded by intensity.

[4] = Thermal decomposition by TGA; format: physicochemical; details: neat prodrug
4T1 tumour = assay: Second 4T1 tumour study, daily dosing for 17 days (Example 7)
Text: Also, the dosage of both compounds was increased to 1.5 mmol for each treatment.

[5] = tested on: 4T1 cells (mouse breast cancer cells); assay: 4T1 mouse breast tumour in BALB/c mice, oral daily dosing for 21 days (Example 6); format: in vivo
Procedure: 90 female BALB/c were injected with 5×10^4 4T1 cells (mouse breast cancer cells) in the second mammary fat pad on the right hand side. The tumour was allowed to form for 6 days prior to drug administration. On day 6, tumours were palpable in most of the mice. […] Mice were placed into groups of 6, and 15 different treatments were administered orally on a daily basis for 21 days.
The length and breadth of the tumours were measured and recorded on day 1, 4, 7, 14, and 21 of the drug administration. On Day 22, mice were euthanized. Blood was collected via cardiac puncture, followed by removal of the tumour, liver, spleen and kidney for histological analysis. Lungs were injected with indium ink prior to removal to allow for quantification of the number of lung metastasis in each animal.

[6] = porcine liver CES, 37° C., enzyme 0.5 mg/mL for prodrugs, 0.005 mg/ml for Capecitabine
[7] = porcine liver CES, 37° C., enzyme 0.5 mg/mL for prodrugs
[8] = in excess water with 2.3% F127 and 4.87% Ethanol, SAXS, 37° C.
[9] = in excess water, RT (25° C.), SAXS

Row | Compound | Specific Activity (SA) at time t = 1 h [1, 6] [µmol/min/mg] | Specific Activity (SA) at time t = 2 h [1, 6] [µmol/min/mg] | Specific Activity (SA) at time t = 6 h [1, 6] [µmol/min/mg] | lyotropic phase behaviour in water penetration scans [2] | Lyotropic phase behaviour [2] | mean (average) particle size [3] [nm] | Average Particle size [3] [nm] | Specific Activity (SA) at time t = 24 h [1, 7] | temperature at which decomposition starts (TGA) [4] | Lattice parameter ([2]; in excess water, 37° C., SAXS) | Lattice parameter [2, 9] | tumours from animals sacrificed at 17 days (images) (4T1 tumour; FIG. 19) | particle size distribution [3] | SA relative to 5-FCPal [1] | Specific Activity (SA) at time t = 12 h [1, 7] | phase in excess water ([2]; physiological temperatures) | further results
1 | CCCCCOC(=O)Nc1nc(=O)n([C@@H]2O[C@H](C)[C@@H](O)[C@H]2O)cc1F [Capecitabine, reference compound] | 733 | 717 | 598 | – | – | – | – | – | – | – | – | – | – | – | – | – | time to hydrolysis to 5-FC ([1]; 5 mg/ml and 0.5 mg/ml enzyme concentration): ≤ 30 min; enzyme activities (SA) ([1]; obtained from three enzymatic concentrations): 600-900 μmol/min/mg enzyme; Specific Activity (SA) at time t = 0.5 h [1, 6]: 933 µmol/min/mg
2 | CCCCCCCCCCCCCCCCOC(=O)Nc1nc(=O)n([C@@H]2O[C@H](C)[C@@H](O)[C@H]2O)cc1F [Prodrug 5-FCPal, 5′-deoxy-5-fluoro-N^4-(hexadecyl-1-oxycarbonyl)cytidine] | 0.3 | 0.38 | 0.33 | did not swell | Solid lipid | 700 | 661 | 0.27 µmol/mL | approximately 120 °C | – | – | – | – | – | – | – | Phases ([2]; in excess water, equilibration @ RT 7 Days, RT, 37, 50° C.): Lamellar; d-spacing ([2]; in excess water, equilibration @ RT 7 Days, RT): (2.86 nm); Phases ([2]; without water, RT, 37, 50, 70, 90° C., SAXS confirmed with XRD): Lamellar; d-spacing ([2]; without water, RT): (2.87 nm); time over which hydrolysis continued towards full conversion ([1]; CES 0.5 mg/mL, 37° C.): more than 7 days
3 | CCCCCCCC/C=C\CCCCCCCCOC(=O)Nc1nc(=O)n(C2OC(C)C(O)C2O)cc1F (stereo not drawn) [Prodrug 5-FCOle, 5′-deoxy-5-fluoro-N^4-(cis-9-octadecenyl-1-oxycarbonyl)cytidine] | 4.97 | 3.7 | 2.24 | traditional lamellar (L[…]) phase at room temperature and 3D cubic (Pn3m) phase at elevated temperatures above 33 °C | Cubosome | 255 | 261 | – | 123 °C | 37 °C Pn3m: 10.40 nm | 25 °C Lα: 6.01 nm | significantly smaller tumours | 150-500 nm | ~10 times | 2.37 | – | Lattice parameter [2, 8]: 37 °C Pn3m: 9.10 nm; Phases [2, 8]: Pn3m; Phases ([2]; in excess water, 37° C., SAXS): 37 °C Pn3m; Phases [2, 9]: RT: Lα; Phases ([2]; neat, SAXS, 25, 37° C.): Smectic; Lattice parameter ([2]; neat, SAXS, 25° C.): 25° C.: 2.99 nm; Lattice parameter ([2]; neat, SAXS, 37° C.): 37° C.: 3.00 nm; Lattice parameter ([2]; neat, XRD, 25° C.): 2.977 nm; Phases ([2]; neat, XRD, 25° C.): Smectic; average 4T1 tumour volume by day 17 (4T1 tumour; 1.5 mmol for each treatment, daily for 17 days): significantly smaller tumour volumes; spleens from animals sacrificed at 17 days (images) (4T1 tumour; FIG. 19): normal spleens; time for tumours to reach a similar size as the other treatment groups after treatment was stopped (4T1 tumour; treatment stopped on day 17): a full week
4 | 5′-deoxy-5-fluoro-N^4-(3,7,11,15-tetramethyl-hexadecyl-1-oxycarbonyl)cytidine [Prodrug 5-FCPhy] | 1.03 | 1.3 | 0.67 | 3D inversed bicontinous cubic phase (Pn3m space group) initially and then transform to 2D hexagonal phase | Hexosome | 164 | 219 | 1.15 µmol/min/mg | 95 °C | 5.60 nm | RT: H2(5.82 nm) | significantly smaller tumours | 100-300 nm | about 4 times | 0.89 µmol/min/mg | – | Phases ([2]; without water, RT, 37° C., equilibrated): Amorphous; spleens from animals sacrificed at 17 days (images) (4T1 tumour; mouse, in vivo): normal spleens; overall tumour volume at day 21 ([5]; 4T1 tumour, oral daily, day 21): second smallest overall tumour volume; behaviour and appearance of the treated mice ([5]; 4T1 tumour-bearing BALB/c mice, oral daily for 21 days): active and healthy
5 | 5′-deoxy-5-fluoro-N^4-(cis-9,cis-12-octadecenyl-1-oxycarbonyl)cytidine [Prodrug 5-FCLeo] | – | – | – | – | – | – | – | – | – | – | – | – | – | – | – | fluid isotropic phase | phase at limited hydration ([2]; limited hydration, physiological temperatures): inverse phases
6 | 5′-deoxy-5-fluoro-N^4-(octadecyl-1-oxycarbonyl)cytidine [Prodrug 5-FCSte] | – | – | – | – | – | – | – | – | – | – | – | – | – | – | – | lamellar phases | –
